Laboratory results from PubChem BioAssay AID2060894 (Molecular Pharmacology Branch, DTP, NCI, 2025).

Tested on: K12877-001-R-J1-PDC complex spheroid viability
Experiment: Anticancer human tumor K12877-001-R-J1-PDC patient-derived lung adenocarcinoma cell line growth inhibition [RAS]
Conditions: for IC50: curve of first compound; for viability, T/C: stronger effect = lower value
Procedure, shortened: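 Agents were tested in combination matrices in half-log decrements from a top concentration at or near clinical Cmax (10 microM if undetermined). Targets were multi-cell spheroids of tumour lines plus HUVEC and MSC stromal cells.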

[1] = second compound 0.00316 µM, first compound 0.000949 µM
[2] = second compound 0.00316 µM, first compound 0.003 µM
[3] = second compound 0.00316 µM, first compound 0.00949 µM
[4] = second compound 0.00316 µM, first compound 0.03 µM
[5] = second compound 0.00316 µM, first compound 0.0949 µM
[6] = second compound 0.00316 µM, first compound 0.3 µM
[7] = second compound 0.01 µM, first compound 0.000949 µM
[8] = second compound 0.01 µM, first compound 0.003 µM
[9] = second compound 0.01 µM, first compound 0.00949 µM
[10] = second compound 0.01 µM, first compound 0.03 µM
[11] = second compound 0.01 µM, first compound 0.0949 µM
[12] = second compound 0.01 µM, first compound 0.3 µM
[13] = second compound 0.0316 µM, first compound 0.000949 µM
[14] = second compound 0.0316 µM, first compound 0.003 µM
[15] = second compound 0.0316 µM, first compound 0.00949 µM
[16] = second compound 0.0316 µM, first compound 0.03 µM
[17] = second compound 0.0316 µM, first compound 0.0949 µM
[18] = second compound 0.0316 µM, first compound 0.3 µM
[19] = second compound 0.1 µM, first compound 0.000949 µM
[20] = second compound 0.1 µM, first compound 0.003 µM
[21] = second compound 0.1 µM, first compound 0.00949 µM
[22] = second compound 0.1 µM, first compound 0.03 µM
[23] = second compound 0.1 µM, first compound 0.0949 µM
[24] = second compound 0.1 µM, first compound 0.3 µM
[25] = second compound 0.316 µM, first compound 0.000949 µM
[26] = second compound 0.316 µM, first compound 0.003 µM
[27] = second compound 0.316 µM, first compound 0.00949 µM
[28] = second compound 0.316 µM, first compound 0.03 µM
[29] = second compound 0.316 µM, first compound 0.0949 µM
[30] = second compound 0.316 µM, first compound 0.3 µM
[31] = second compound 1 µM, first compound 0.000949 µM
[32] = second compound 1 µM, first compound 0.003 µM
[33] = second compound 1 µM, first compound 0.00949 µM
[34] = second compound 1 µM, first compound 0.03 µM
[35] = second compound 1 µM, first compound 0.0949 µM
[36] = second compound 1 µM, first compound 0.3 µM
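Further: spheroids exposed to agents for one week before readout.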
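Wherever viability, T/C is given: tumour cells co-cultured with HUVEC and mesenchymal stem cells in spheroids.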

SMILES: CC1(C)CCC(Nc2ncc(C(F)(F)F)c(-c3c[nH]c4c(P(C)(C)=O)c(C#N)ccc34)n2)CN1 (stereo unspecified) + C=CC(=O)N1CCN(c2nc(OCC3CCCN3C)nc3c(F)c(-c4nc(N)cc(C)c4C(F)(F)F)c(Cl)cc23)C(C)C1
- IC50 (second compound 0.00316 µM): 32.5 nM
- IC50 (second compound 0.01 µM): 76 nM
- IC50 (second compound 0.0316 µM): 46.6 nM
- IC50 (second compound 0.1 µM): 38.5 nM
- IC50 (second compound 0.316 µM): 59 nM
- IC50 (second compound 1 µM): 98 nM
- viability, T/C [1]: 107%
- viability, T/C [2]: 85.1%
- viability, T/C [3]: 74.4%
- viability, T/C [4]: 53.2%
- viability, T/C [5]: 30.1%
- viability, T/C [6]: 36.3%
- viability, T/C [7]: 92.3%
- viability, T/C [8]: 78.3%
- viability, T/C [9]: 62.5%
- viability, T/C [10]: 59.1%
- viability, T/C [11]: 47.4%
- viability, T/C [12]: 43.4%
- viability, T/C [13]: 87%
- viability, T/C [14]: 73.6%
- viability, T/C [15]: 63.9%
- viability, T/C [16]: 57.2%
- viability, T/C [17]: 42%
- viability, T/C [18]: 33.1%
- viability, T/C [19]: 80.1%
- viability, T/C [20]: 76.8%
- viability, T/C [21]: 63.8%
- viability, T/C [22]: 52.6%
- viability, T/C [23]: 41.6%
- viability, T/C [24]: 32.9%
- viability, T/C [25]: 87.7%
- viability, T/C [26]: 79.6%
- viability, T/C [27]: 66.2%
- viability, T/C [28]: 54.8%
- viability, T/C [29]: 48.1%
- viability, T/C [30]: 35.1%
- viability, T/C [31]: 85.6%
- viability, T/C [32]: 77.6%
- viability, T/C [33]: 70.5%
- viability, T/C [34]: 62.8%
- viability, T/C [35]: 49.7%
- viability, T/C [36]: 38.3%

SMILES: CCc1c2c(nc3ccc(O)cc13)-c1cc3c(c(=O)n1C2)COC(=O)[C@]3(O)CC + C=CC(=O)N1CCN(c2nc(OCC3CCCN3C)nc3c(F)c(-c4nc(N)cc(C)c4C(F)(F)F)c(Cl)cc23)C(C)C1
- IC50 (second compound 0.00316 µM): 5.1 nM
- IC50 (second compound 0.01 µM): 4.8 nM
- IC50 (second compound 0.0316 µM): 4.04 nM
- IC50 (second compound 0.1 µM): 4.57 nM
- IC50 (second compound 0.316 µM): 4.75 nM
- IC50 (second compound 1 µM): 4.35 nM
- viability, T/C [1]: 88.5%
- viability, T/C [2]: 84%
- viability, T/C [3]: 10.2%
- viability, T/C [4]: 4.07%
- viability, T/C [5]: 2.12%
- viability, T/C [6]: 1.09%
- viability, T/C [7]: 89%
- viability, T/C [8]: 77.8%
- viability, T/C [9]: 9.78%
- viability, T/C [10]: 4.25%
- viability, T/C [11]: 2.46%
- viability, T/C [12]: 1.37%
- viability, T/C [13]: 88.3%
- viability, T/C [14]: 64.4%
- viability, T/C [15]: 8.38%
- viability, T/C [16]: 4.14%
- viability, T/C [17]: 2.38%
- viability, T/C [18]: 1.15%
- viability, T/C [19]: 75.2%
- viability, T/C [20]: 73.2%
- viability, T/C [21]: 9.95%
- viability, T/C [22]: 2.92%
- viability, T/C [23]: 1.65%
- viability, T/C [24]: 1.21%
- viability, T/C [25]: 83.4%
- viability, T/C [26]: 77.9%
- viability, T/C [27]: 7.81%
- viability, T/C [28]: 3.82%
- viability, T/C [29]: 2.34%
- viability, T/C [30]: 2.52%
- viability, T/C [31]: 82.2%
- viability, T/C [32]: 69.9%
- viability, T/C [33]: 8.23%
- viability, T/C [34]: 5.41%
- viability, T/C [35]: 2.4%
- viability, T/C [36]: 1.32%

SMILES: C=CC(=O)Nc1cc(Nc2nccc(-c3cn(C)c4ccccc34)n2)c(OC)cc1N(C)CCN(C)C + CCn1c(-c2cc(N3CCN(C)CC3)cnc2C(C)OC)c2c3cc(ccc31)-c1csc(n1)CC(NC(=O)C1CC1C)C(=O)N1CCCC(N1)C(=O)OCC(C)(C)C2
- IC50 (second compound 0.000949 µM): > 1000 nM
- IC50 (second compound 0.003 µM): > 1000 nM
- IC50 (second compound 0.00949 µM): > 1000 nM
- IC50 (second compound 0.03 µM): > 1000 nM
- IC50 (second compound 0.0949 µM): > 1000 nM
- IC50 (second compound 0.3 µM): > 1000 nM
- viability, T/C (second compound 0.000949 µM, first compound 0.00316 µM): 90.8%
- viability, T/C (second compound 0.000949 µM, first compound 0.01 µM): 69.3%
- viability, T/C (second compound 0.000949 µM, first compound 0.0316 µM): 83.4%
- viability, T/C (second compound 0.000949 µM, first compound 0.1 µM): 78.9%
- viability, T/C (second compound 0.000949 µM, first compound 0.316 µM): 82.4%
- viability, T/C (second compound 0.000949 µM, first compound 1 µM): 71.3%
- viability, T/C (second compound 0.003 µM, first compound 0.00316 µM): 73.7%
- viability, T/C (second compound 0.003 µM, first compound 0.01 µM): 70.3%
- viability, T/C (second compound 0.003 µM, first compound 0.0316 µM): 66.1%
- viability, T/C (second compound 0.003 µM, first compound 0.1 µM): 74.4%
- viability, T/C (second compound 0.003 µM, first compound 0.316 µM): 74.9%
- viability, T/C (second compound 0.003 µM, first compound 1 µM): 72%
- viability, T/C (second compound 0.00949 µM, first compound 0.00316 µM): 82.9%
- viability, T/C (second compound 0.00949 µM, first compound 0.01 µM): 71.4%
- viability, T/C (second compound 0.00949 µM, first compound 0.0316 µM): 69%
- viability, T/C (second compound 0.00949 µM, first compound 0.1 µM): 69.6%
- viability, T/C (second compound 0.00949 µM, first compound 0.316 µM): 63%
- viability, T/C (second compound 0.00949 µM, first compound 1 µM): 73%
- viability, T/C (second compound 0.03 µM, first compound 0.00316 µM): 89.3%
- viability, T/C (second compound 0.03 µM, first compound 0.01 µM): 83.2%
- viability, T/C (second compound 0.03 µM, first compound 0.0316 µM): 80.4%
- viability, T/C (second compound 0.03 µM, first compound 0.1 µM): 75.9%
- viability, T/C (second compound 0.03 µM, first compound 0.316 µM): 90.2%
- viability, T/C (second compound 0.03 µM, first compound 1 µM): 93.1%
- viability, T/C (second compound 0.0949 µM, first compound 0.00316 µM): 106%
- viability, T/C (second compound 0.0949 µM, first compound 0.01 µM): 104%
- viability, T/C (second compound 0.0949 µM, first compound 0.0316 µM): 125%
- viability, T/C (second compound 0.0949 µM, first compound 0.1 µM): 97.7%
- viability, T/C (second compound 0.0949 µM, first compound 0.316 µM): 87.7%
- viability, T/C (second compound 0.0949 µM, first compound 1 µM): 84.7%
- viability, T/C (second compound 0.3 µM, first compound 0.00316 µM): 90%
- viability, T/C (second compound 0.3 µM, first compound 0.01 µM): 96.1%
- viability, T/C (second compound 0.3 µM, first compound 0.0316 µM): 93%
- viability, T/C (second compound 0.3 µM, first compound 0.1 µM): 89.8%
- viability, T/C (second compound 0.3 µM, first compound 0.316 µM): 82.5%
- viability, T/C (second compound 0.3 µM, first compound 1 µM): 73.7%
